Values quoted from earlier work as cited in patent US10927398B2, “Compositions for CYP450 phenotyping using saliva samples” (Concordia University, Inc., priority 2015, dated 2021).
Like-named read-outs stand apart in the source and are kept apart here.

What was measured:
[1] = cited from earlier work
plasma protein = conditions: cited from earlier work
[2] = cited from earlier work; remark: listed apart in the source
[3] = Table of Exemplary Drugs, CYP1A2
[4] = Table of Exemplary Drugs, CYP2C9
[5] = Table of Exemplary Drugs, CYP2C19
[6] = Table of Exemplary Drugs, CYP2D6
[7] = Table of Exemplary Drugs, CYP3A4

## CN(C)CCC=C1c2ccccc2CCc2ccccc21 [Amitriptyline]
[1]; [3]
  ORAL BIOAVAILABILITY: ~43-46%
[1]; [4]
  ORAL BIOAVAILABILITY: 30-60%
[1]; [5]
  ORAL BIOAVAILABILITY: 30-60%
[1]; [6]
  ORAL BIOAVAILABILITY: ~43-46%
Plasma protein; [3]
  PLASMA PROTEIN BINDING: >90%
Plasma protein; [4]
  PLASMA PROTEIN BINDING: >90%
Plasma protein; [5]
  PLASMA PROTEIN BINDING: >90%
Plasma protein; [6]
  PLASMA PROTEIN BINDING: >90%
[2]; [3]
  HALF-LIFE: ~13 to 36 h
[2]; [4]
  HALF-LIFE: 15 h
[2]; [5]
  HALF-LIFE: 15 h
[2]; [6]
  HALF-LIFE: ~13 to 36 h

## COc1cc2nc(N(C)CCCNC(=O)C3CCCO3)nc(N)c2cc1OC (stereo not drawn) [Alfazosin (Uroxatral), Alfazosin]
[1]; in vivo, po
  ORAL BIOAVAILABILITY: 49%
Plasma protein; plasma
  PLASMA PROTEIN BINDING: 86%
[2]; in vivo
  HALF-LIFE: 10 h

## CC(C)n1c(/C=C/C(O)CC(O)CC(=O)O)c(-c2ccc(F)cc2)c2ccccc21 (stereo not drawn) [Fluvastatin]
[1]; [4]
  ORAL BIOAVAILABILITY: 24%
Plasma protein; [4]
  PLASMA PROTEIN BINDING: 98%
[2]; [4]
  HALF-LIFE: 2.5 h

## COc1ccc([C@@H]2Sc3ccccc3N(CCN(C)C)C(=O)[C@@H]2OC(C)=O)cc1 [Diltiazem (Cardizem), Diltiazem]
[1]; [7]
  ORAL BIOAVAILABILITY: >40%
Plasma protein; [7]
  PLASMA PROTEIN BINDING: 70-80% ^
[2]; [7]
  HALF-LIFE: 3 to 6 h

## COc1ccnc(C[S+]([O-])c2nc3ccc(OC(F)F)cc3[nH]2)c1OC (stereo not drawn) [Pantoprazole]
[1]; [5]
  ORAL BIOAVAILABILITY: 77%
Plasma protein; [5]
  PLASMA PROTEIN BINDING: 98%
[2]; [5]
  HALF-LIFE: 1 h

## COc1ccc2cccc(CCNC(C)=O)c2c1 [Agomelatine]
[1]; [3]
  ORAL BIOAVAILABILITY: <5%
Plasma protein; [3]
  PLASMA PROTEIN BINDING: 95%
[2]; [3]
  HALF-LIFE: 1 to 2 h

## Polyunsaturated FAs
[1]; [4]
  ORAL BIOAVAILABILITY: 64-73%
Plasma protein; [4]
  PLASMA PROTEIN BINDING: >99%
[2]; [4]
  HALF-LIFE: 2.7 to 5.5 h

## COc1ccc2c(c1)c(CC(=O)O)c(C)n2C(=O)c1ccc(Cl)cc1 [Indomethacin]
[1]; [5]
  ORAL BIOAVAILABILITY: 100%
Plasma protein; [5]
  PLASMA PROTEIN BINDING: 99%
[2]; [5]
  HALF-LIFE: 4.5 h

## CN1C(C(=O)Nc2ccccn2)=C(O)c2sc(Cl)cc2S1(=O)=O [Lornoxicam]
[1]; cell marked IM, Table of Exemplary Drugs, CYP2C9
  ORAL BIOAVAILABILITY: IM: 87%
Plasma protein; [4]
  PLASMA PROTEIN BINDING: 99.7%^
[2]; [4]
  HALF-LIFE: 4 h

## [H]/N=C(/N)N/C(=N/[H])NCCc1ccccc1 [Phenformin]
[1]; [6]
  ORAL BIOAVAILABILITY: 40-60%
Plasma protein; [6]
  PLASMA PROTEIN BINDING: 12-20% ^
[2]; [6]
  HALF-LIFE: 4 to 13 h

## CC(C)[C@H]1CC[C@H](C(=O)N[C@H](Cc2ccccc2)C(=O)O)CC1 [Nateglinide]
[1]; [4]
  ORAL BIOAVAILABILITY: 73%
Plasma protein; [4]
  PLASMA PROTEIN BINDING: 98%
[2]; [4]
  HALF-LIFE: 1.5 h

## CC(C)N(CCC(C(N)=O)(c1ccccc1)c1ccccn1)C(C)C (stereo not drawn) [Disopyramide (Norpace), Disopyramide]
[1]; [7]
  ORAL BIOAVAILABILITY: 80%
Plasma protein; [7]
  PLASMA PROTEIN BINDING: 50-65% ^
[2]; [7]
  HALF-LIFE: 6.7 h

## CNCCC(Oc1ccc(C(F)(F)F)cc1)c1ccccc1 (stereo not drawn) [Fluoxetine]
[1]; [4]
  ORAL BIOAVAILABILITY: 60-80%
[1]; [6]
  ORAL BIOAVAILABILITY: 60-80%
Plasma protein; [4]
  PLASMA PROTEIN BINDING: 94.5%^
Plasma protein; [6]
  PLASMA PROTEIN BINDING: 94.5%^
[2]; [4]
  HALF-LIFE: 96 to 140 h
[2]; [6]
  HALF-LIFE: 96 to 140 h

## CNCC[C@@H](Oc1ccccc1C)c1ccccc1 [Atomoxetine]
[1]; [6]
  ORAL BIOAVAILABILITY: 63%
Plasma protein; [6]
  PLASMA PROTEIN BINDING: 98%
[2]; [6]
  HALF-LIFE: 5.2 h

## C=C1C[C@@H]2[C@H](CC[C@]3(C)C(=O)CC[C@@H]23)[C@@]2(C)C=CC(=O)C=C12 [Exemestane (Aromasin), Exemestane]
[1]; [7]
  ORAL BIOAVAILABILITY: 42%
Plasma protein; [7]
  PLASMA PROTEIN BINDING: 90%
[2]; [7]
  HALF-LIFE: 24 h

## COc1ccc2c3c1O[C@H]1[C@@H](O)C=C[C@H]4[C@@H](C2)N(C)CC[C@@]341 [Codeine]
[1]; in vivo, po
  ORAL BIOAVAILABILITY: 90%
Plasma protein; [6]
  PLASMA PROTEIN BINDING: 7-25%^
[2]; in vivo
  HALF-LIFE: 2.5 to 3 h

## CCOC(=O)C1=C(C)NC(C)=C(C(=O)OC)C1c1cccc([N+](=O)[O-])c1 (stereo not drawn) [Nitrendipine (Baypress), Nitrendipine]
[1]; [7]
  ORAL BIOAVAILABILITY: 23%
Plasma protein; [7]
  PLASMA PROTEIN BINDING: 97-99% ^
[2]; [7]
  HALF-LIFE: 2 to 24 h

## O=C(C1CCCCC1)N1CC(=O)N2CCc3ccccc3C2C1 (stereo not drawn) [Praziquantel (Biltricide), Praziquantel]
[1]; [7]
  ORAL BIOAVAILABILITY: 80%
Plasma protein; [7]
  PLASMA PROTEIN BINDING: 80%
[2]; [7]
  HALF-LIFE: 0.8 to 3 h

## CN1[C@@H]2CC[C@H]1C[C@@H](OC(=O)c1c[nH]c3ccccc13)C2 [Tropisetron]
[1]; [6]
  ORAL BIOAVAILABILITY: 60-100%
Plasma protein; [6]
  PLASMA PROTEIN BINDING: 71%
[2]; [6]
  HALF-LIFE: 5.6 to 8.6 h

## CC(=O)Nc1ccc(O)cc1 [Paracetamol]
[1]; [3]
  ORAL BIOAVAILABILITY: 85-98%
Plasma protein; [3]
  PLASMA PROTEIN BINDING: 10-25% ^
[2]; [3]
  HALF-LIFE: 1 to 4 h

## COc1cccc2c1C(=O)c1c(O)c3c(c(O)c1C2=O)C[C@@](O)(C(=O)CO)C[C@@H]3O[C@H]1C[C@H](N)[C@H](O)[C@H](C)O1 [Doxorubicin (Adriamycin), Doxorubicin]
[1]; [7]
  ORAL BIOAVAILABILITY: 5%
Plasma protein; [7]
  PLASMA PROTEIN BINDING: 74-76% ^
[2]; [7]
  HALF-LIFE: 20 to 48 h
